In patent US10487093B2, “Heterocyclic compounds, in particular 2-oxo-4,4,5,5,6,6,7,7-octahydrobenzoxazole derivatives, and their use as antibacterial compounds” (priority 2016, dated 2019):
Values after ≈ are worked out from the molar mass of the structure shown.

Experiments:
[1] = system: Mycobacterium smegmatis ATCC 19420; test: MIC, broth microdilution (CLSI) versus planktonic bacteria; assay type: cell-based; conditions: Mycolicibacterium smegmatis, ATCC19420, 16-20 h, mode of three independent experiments, read-out: MIC, Ms ATCC 19420
[2] = system: Haemophilus influenzae ATCC 49247; test: as above; assay type: cell-based; conditions: ATCC49247; Haemophilus influenzae ATCC 49247; 16-20 h; mode of three independent experiments; read-out: MIC, Hi ATCC 49247
[3] = system: Pseudomonas aeruginosa ATCC 27853; test: as above; assay type: cell-based; conditions: ATCC27853; Pseudomonas aeruginosa ATCC 27853; 16-20 h; mode of three independent experiments; read-out: MIC, Pa ATCC 27853
[4] = system: Streptococcus pneumoniae ATCC 49619; test: as above; assay type: cell-based; conditions: ATCC49619; Streptococcus pneumoniae ATCC 49619; 16-20 h; mode of three independent experiments; read-out: MIC, Sp ATCC 49619
[5] = system: Escherichia coli ATCC 25922; test: as above; assay type: cell-based; conditions: ATCC25922; Escherichia coli ATCC 25922; 16-20 h; mode of three independent experiments; read-out: MIC, Ec ATCC 25922
[6] = system: Enterobacter cloacae NCTC 13406; test: as above; assay type: cell-based; conditions: NCTC13406; Enterobacter cloacae NCTC 13406; 16-20 h; mode of three independent experiments; read-out: MIC, Ecl NCTC 13406
[7] = system: Staphylococcus aureus ATCC 29213; test: as above; assay type: cell-based; conditions: ATCC29213; Staphylococcus aureus ATCC 29213; 16-20 h; mode of three independent experiments; read-out: MIC, Sa ATCC 29213
[8] = system: Acinetobacter baumannii NCTC 13420; test: as above; assay type: cell-based; conditions: NCTC13420; Acinetobacter baumannii NCTC 13420; 16-20 h; mode of three independent experiments; read-out: MIC, Ab NCTC 13420
[9] = system: human hepatic cell line (HepG2 ATCC HB-8065); test: Human cell viability assay (CellTiter-Glo); conditions: Homo sapiens, HepG2, 24 h, read-out: IC50 (μg/mL) HepG2
[10] = system: Acinetobacter baumannii ATCC 19606; test: MIC, broth microdilution (CLSI) versus planktonic bacteria; assay type: cell-based; conditions: ATCC19606; Acinetobacter baumannii ATCC 19606; 16-20 h; mode of three independent experiments; read-out: MIC, Ab ATCC 19606
[11] = system: Neisseria meningitidis ATCC 13090; test: as above; assay type: cell-based; conditions: ATCC13090, 16-20 h, mode of three independent experiments
E. coli MG1655 D87G = assay type: cell-based, Escherichia coli; conditions: compared to the isogenic parent strain E. coli MG1655; D87G mutation on DNA gyrase subunit GyrA
E. coli MG1655 = test: MIC, broth microdilution (CLSI) versus planktonic bacteria; assay type: cell-based, Escherichia coli; conditions: Escherichia coli, MG1655, read-out: MIC, Ec MG1655 WT
E. coli MG1655 S83L = assay type: cell-based, Escherichia coli; conditions: compared to the isogenic parent strain E. coli MG1655; S83L mutation on DNA gyrase subunit GyrA
E. coli ATCC BAA-2452 = test: MIC, broth microdilution (CLSI) versus planktonic bacteria; assay type: cell-based; conditions: Escherichia coli ATCC BAA-2452; 16-20 h; mode of three independent experiments; read-out: MIC, Ec ATCC BAA 2452
E. coli NCTC 13476 = test: as above; assay type: cell-based; conditions: NCTC13476; Escherichia coli NCTC 13476; 16-20 h; mode of three independent experiments; read-out: MIC, Ec NCTC 13476
[12] = system: fluoroquinolone-resistant Enterococcus faecium ATCC 700221; test: as above; assay type: cell-based; conditions: ATCC700221, 16-20 h, mode of three independent experiments, read-out: MIC, Efm ATCC 700221
[13] = system: Enterococcus faecalis ATCC 29212; test: as above; assay type: cell-based; conditions: ATCC29212, 16-20 h, mode of three independent experiments, read-out: MIC, Ef ATCC 29212
[14] = system: Enterococcus faecium ATCC 19434; test: as above; assay type: cell-based; conditions: ATCC19434, 16-20 h, mode of three independent experiments, read-out: MIC, Efm ATCC 19434

Structure (SMILES) | MIC [1] [µg/mL] | MIC [2] [µg/mL] | MIC [3] [µg/mL] | MIC [4] [µg/mL] | MIC [5] [µg/mL] | MIC [6] [µg/mL] | MIC [7] [µg/mL] | MIC [8] [µg/mL] | IC50 [9] [µg/mL] | MIC [10] [µg/mL] | MIC [11] [µg/mL] | Fold increase in MIC, E. coli MG1655 D87G (E. coli MG1655 D87G) [fold] | MIC (E. coli MG1655) [µg/mL] | Fold increase in MIC, E. coli MG1655 S83L (E. coli MG1655 S83L) [fold] | MIC (E. coli ATCC BAA-2452) [µg/mL] | MIC (E. coli NCTC 13476) [µg/mL] | MIC [12] [µg/mL] | MIC [13] [µg/mL] | MIC [14] [µg/mL]
O=C1COc2ccc(N3C(=O)O[C@@H]4C[C@@H](NCCn5c(=O)ccc6ccc(OCCO)nc65)CC[C@@H]43)nc2N1 [Compound 6, 1-(2-{[(3aS,6S,7aR)-2-oxo-3-{3-oxo-2H,3H,4H-pyrido[3,2-b][1,4]oxazin-6-yl}-octahydro-1,3-benzoxazol-6-yl]amino}ethyl)-7-(2-hydroxyethoxy)-1,2-dihydro-1,8-naphthyridin-2-one] | < 1 | 1 to 10 (≈ 1.86 to 18.6 µM) | 1 to 10 (≈ 1.86 to 18.6 µM) | < 1 | 1 to 10 (≈ 1.86 to 18.6 µM) | 10 to 100 (≈ 18.6 to 186 µM) | 1 to 10 (≈ 1.86 to 18.6 µM) | 10 to 100 (≈ 18.6 to 186 µM) | > 100 |  |  |  |  |  |  |  |  |  | 
N#Cc1ccc2ccc(=O)n(CCN(CCN)[C@H]3CC[C@H]4[C@@H](C3)OC(=O)N4c3ccc4c(n3)NC(=O)CO4)c2c1 [Compound 58, 1-(2-{[(3aS,6S,7aR)-2-oxo-3-{3-oxo-2H,3H,4H-pyrido[3,2-b][1,4]oxazin-6-yl}-octahydro-1,3-benzoxazol-6-yl](2-aminoethyl)amino}ethyl)-2-oxo-1,2-dihydroquinoline-7-carbonitrile] | 1 to 10 (≈ 1.84 to 18.4 µM) | > 100 | 1 to 10 (≈ 1.84 to 18.4 µM) | > 100 | 10 to 100 (≈ 18.4 to 184 µM) | > 100 | < 1 | > 100 | > 100 |  |  |  |  |  |  |  |  |  | 
NCCOc1ccc2ccc(=O)n(CCN[C@H]3CC[C@H]4[C@@H](C3)OC(=O)N4c3ccc4c(n3)NC(=O)CO4)c2c1 [Compound 9, 1-(2-{[(3aS,6S,7aR)-2-oxo-3-{3-oxo-2H,3H,4H-pyrido[3,2-b][1,4]oxazin-6-yl}-octahydro-1,3-benzoxazol-6-yl]amino}ethyl)-7-(2-aminoethoxy)-1,2-dihydroquinolin-2-one] | > 100 | 10 to 100 (≈ 18.7 to 187 µM) | 1 to 10 (≈ 1.87 to 18.7 µM) | 10 to 100 (≈ 18.7 to 187 µM) | 1 to 10 (≈ 1.87 to 18.7 µM) | > 100 | 1 to 10 (≈ 1.87 to 18.7 µM) | > 100 | > 100 |  |  |  |  |  |  |  |  |  | 
N#Cc1cccc(-c2cccc(CN[C@H]3CC[C@H]4[C@@H](C3)OC(=O)N4c3ccc4c(n3)NC(=O)CO4)c2O)n1 [Compound 18, 6-[3-({[(3aS,6S,7aR)-2-oxo-3-{3-oxo-2H,3H,4H-pyrido[3,2-b][1,4]oxazin-6-yl}-octahydro-1,3-benzoxazol-6-yl]amino}methyl)-2-hydroxyphenyl]pyridine-2-carbonitrile] |  | 1 to 10 (≈ 1.95 to 19.5 µM) | 1 to 10 (≈ 1.95 to 19.5 µM) | < 1 | < 1 | < 1 | < 1 | < 1 | 1 to 10 (≈ 1.95 to 19.5 µM) | < 1 | < 1 | 1 | < 1 | 2 | 1 to 10 (≈ 1.95 to 19.5 µM) | 1 to 10 (≈ 1.95 to 19.5 µM) |  |  | 
COc1ccc2ccc(=O)n(CCN[C@H]3CC[C@H]4[C@@H](C3)OC(=O)N4c3ccc4c(n3)NC(=O)CO4)c2n1 [Compound 4, 1-(2-{[(3aS,6S,7aR)-2-oxo-3-{3-oxo-2H,3H,4H-pyrido[3,2-b][1,4]oxazin-6-yl}-octahydro-1,3-benzoxazol-6-yl]amino}ethyl)-7-methoxy-1,2-dihydro-1,8-naphthyridin-2-one] | < 1 | 1 to 10 (≈ 1.97 to 19.7 µM) | 1 to 10 (≈ 1.97 to 19.7 µM) | < 1 | < 1 | < 1 | < 1 | < 1 | 10 to 100 (≈ 19.7 to 197 µM) | < 1 | < 1 | 1 | < 1 | 1 | < 1 | < 1 |  |  | 
NCCOc1ccc2ccc(=O)n(CCN[C@H]3CC[C@H]4[C@@H](C3)OC(=O)N4c3ccc4c(n3)NC(=O)CO4)c2n1 [Compound 10, 1-(2-{[(3aS,6S,7aR)-2-oxo-3-{3-oxo-2H,3H,4H-pyrido[3,2-b][1,4]oxazin-6-yl}-octahydro-1,3-benzoxazol-6-yl]amino}ethyl)-7-(2-aminoethoxy)-1,2-dihydro-1,8-naphthyridin-2-one] | > 100 | 10 to 100 (≈ 18.7 to 187 µM) | 1 to 10 (≈ 1.87 to 18.7 µM) | 10 to 100 (≈ 18.7 to 187 µM) | 1 to 10 (≈ 1.87 to 18.7 µM) | > 100 | 10 to 100 (≈ 18.7 to 187 µM) | > 100 | > 100 |  |  |  |  |  |  |  |  |  | 
NCCCOc1ccc2ccc(=O)n(CCN[C@H]3CC[C@H]4[C@@H](C3)OC(=O)N4c3ccc4c(n3)NC(=O)CO4)c2n1 [Compound 5, 1-(2-{[(3aS,6S,7aR)-2-oxo-3-{3-oxo-2H,3H,4H-pyrido[3,2-b][1,4]oxazin-6-yl}-octahydro-1,3-benzoxazol-6-yl]amino}ethyl)-7-(3-aminopropoxy)-1,2-dihydro-1,8-naphthyridin-2-one] | 1 to 10 (≈ 1.82 to 18.2 µM) | > 100 | 1 to 10 (≈ 1.82 to 18.2 µM) | 10 to 100 (≈ 18.2 to 182 µM) | 10 to 100 (≈ 18.2 to 182 µM) | > 100 | 1 to 10 (≈ 1.82 to 18.2 µM) | > 100 | > 100 |  |  |  |  |  |  |  |  |  | 
COc1ccc2ccc(=O)n(CCN[C@H]3CC[C@H]4[C@H](C3)OC(=O)N4c3ccc4c(n3)NC(=O)CS4)c2n1 [Compound 61, 1-(2-{[(3aS,6S,7aS)-2-oxo-3-{3-oxo-2H,3H,4H-pyrido[3,2-b][1,4]thiazin-6-yl}-octahydro-1,3-benzoxazol-6-yl]amino}ethyl)-7-methoxy-1,2-dihydro-1,8-naphthyridin-2-one] |  | < 1 | < 1 | < 1 | < 1 | < 1 | < 1 | < 1 | 10 to 100 (≈ 19.1 to 191 µM) | < 1 |  | 1 | < 1 | 1 | < 1 | < 1 | < 1 | < 1 | < 1
CCCOc1ccc2ccc(=O)n(CCN[C@H]3CC[C@H]4[C@H](C3)OC(=O)N4c3ccc4c(n3)NC(=O)CO4)c2c1 [Compound 91, 1-(2-{[(3aS,6S,7aS)-2-oxo-3-{3-oxo-2H,3H,4H-pyrido[3,2-b][1,4]oxazin-6-yl}-octahydro-1,3-benzoxazol-6-yl]amino}ethyl)-7-propoxy-1,2-dihydroquinolin-2-one] |  | < 1 | 10 to 100 (≈ 18.7 to 187 µM) | < 1 | < 1 | 1 to 10 (≈ 1.87 to 18.7 µM) | < 1 | < 1 | 10 to 100 (≈ 18.7 to 187 µM) | < 1 |  | 1 | < 1 | 0.5 | < 1 | 1 to 10 (≈ 1.87 to 18.7 µM) | 1 to 10 (≈ 1.87 to 18.7 µM) | 1 to 10 (≈ 1.87 to 18.7 µM) | 1 to 10 (≈ 1.87 to 18.7 µM)
NS(=O)(=O)c1ccc(Oc2ccc3ccc(=O)n(CCN[C@@H]4CC[C@@H]5[C@@H](C4)OC(=O)N5c4ccc5c(n4)NC(=O)CO5)c3n2)cc1 [Compound 8, 4-{[8-(2-{[(3aR,6R,7aR)-2-oxo-3-{3-oxo-2H,3H,4H-pyrido[3,2-b][1,4]oxazin-6-yl}-octahydro-1,3-benzoxazol-6-yl]amino}ethyl)-7-oxo-7,8-dihydro-1,8-naphthyridin-2-yl]oxy}benzene-1-sulphonamide] | < 1 | < 1 | 10 to 100 (≈ 15.4 to 154 µM) | 1 to 10 (≈ 1.54 to 15.4 µM) | 1 to 10 (≈ 1.54 to 15.4 µM) | 10 to 100 (≈ 15.4 to 154 µM) | < 1 | 10 to 100 (≈ 15.4 to 154 µM) | 10 to 100 (≈ 15.4 to 154 µM) |  |  |  |  |  |  |  |  |  | 
